Measurements from patent US9233979B2, “Compounds that are ERK inhibitors” (Merck Sharp & Dohme Corp., priority 2012, dated 2016).

Biological target: phosphorylated active hERK2 enzyme (Homo sapiens (Human), UniProt P28482)
Experiment: Active Human ERK2 (hERK2) Activity Assay (IMAP-FP)
Assay type: biochemical
Conditions: Table 6, 0.5 nM hERK2, 30 μM ATP, 10 point titration, read-out: AERK2 IC50
How it was run: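 IMAP detection beads in buffer with 24 mM NaCl stopped the reaction, and fluorescence polarization was read after 60 min binding.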

Chain of phosphorylated active hERK2 enzyme (P28482 whole entry): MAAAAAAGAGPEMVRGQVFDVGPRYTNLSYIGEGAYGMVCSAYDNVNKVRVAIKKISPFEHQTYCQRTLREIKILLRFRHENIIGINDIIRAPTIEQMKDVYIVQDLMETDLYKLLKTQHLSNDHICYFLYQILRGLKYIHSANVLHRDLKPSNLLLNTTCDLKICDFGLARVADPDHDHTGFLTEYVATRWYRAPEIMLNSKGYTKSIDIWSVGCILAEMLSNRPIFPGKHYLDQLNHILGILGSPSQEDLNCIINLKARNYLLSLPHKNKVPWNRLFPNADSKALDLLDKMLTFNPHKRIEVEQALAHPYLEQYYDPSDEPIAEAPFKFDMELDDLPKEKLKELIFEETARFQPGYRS

SMILES | IC50
C[C@H](O)[C@@H](NC(=O)Nc1cc2[nH]nc(N3CCc4ncsc4C3)c2cn1)c1ccccc1 [Example 388, 1-[3-(6,7-dihydro[1,3]-thiazolo[5,4-c]pyridin-5(4H)-yl)-1H-pyrazolo[4,3-c]-pyridin-6-yl]-3-[(1S,2S)-2-hydroxy-1-phenylpropyl]urea] | 34.6 nM
CC(C)(O)[C@@H](NC(=O)Nc1cc2[nH]nc(NC(=O)N3CCC(F)(F)C3)c2cn1)c1ccc(F)cc1 [Example 131, 3,3-difluoro-N-[6-({[(1S)-1-(4-fluorophenyl)-2-hydroxy-2-methylpropyl}-carbamoyl}amino)-1H-pyrazolo[4,3-c]pyridin-3-yl]-pyrrolidine-1-carboxamide] | 1.5 nM

Second part, the compound after the results:

IC50 | SMILES
5.6 nM | C[C@@H](O)[C@@H](NC(=O)Nc1cc2[nH]nc(N3CCc4scnc4C3)c2cn1)c1ccccc1 [Example 64, 1-[3-(6,7-dihydro[1,3]thiazolo-[4,5-c]pyridin-5(4H)-yl)-1H-pyrazolo[4,3-c]pyridin-6-yl]-3-[(1S,2R)-2-hydroxy-1-phenylpropyl]urea]
2.3 nM | C[C@@H](NC(=O)Nc1cc2[nH]nc(NC3CCOC3)c2cn1)c1ccccc1 (stereo partly drawn) [Example 161, 1-[(1R)-1-phenylethyl]-3-[3-(tetrahydrofuran-3-ylamino)-1H-pyrazolo[4,3-c]pyridin-6-yl]urea]
4.1 nM | CC(Nc1n[nH]c2cc(NC(=O)N[C@H](C)c3ccccc3)ncc12)C1CCOCC1 (stereo partly drawn) [Example 171, 1-[(1R)-1-phenylethyl]-3-(3-{[1-(tetrahydro-2H-pyran-4-yl)-ethyl]amino}-1H-pyrazolo[4,3-c]-pyridin-6-yl)urea]
